The values that follow come from ChEMBL document CHEMBL5096180, “Pyrimidine-based EGFR TK inhibitors in targeted cancer therapy” (Eur J Med Chem, 2021).

Where “and” joins values, the source holds several entries; their conditions need not be identical. Identical values can stand only once.

In assay [1] the target is T1, Epidermal growth factor receptor (Homo sapiens, UniProt P00533). Briefly: Inhibition of recombinant EGFR (unknown origin) using TMB as substrate incubated for 3 hrs in presence of ATP by ELISA.
In assay [2] the test system is MCF7. In words: Anticancer activity against human MCF7 cells incubated for 48 hrs by MTT assay. The class given is functional, cell-based. Particulars: MCF7, 48 h.
Assay [3] relates to MCF7. In words: Potency index,ratio of test compound IC50 to Doxorubicin IC50 for antiproliferative activity against human MCF7 cells incubated for 48 hrs by MTT assay. The class given is functional.
The test system of assay [4] is MCF7. In words: Potency index,ratio of test compound IC50 to Erlotinib IC50 for antiproliferative activity against human MCF7 cells incubated for 48 hrs by MTT assay. The class given is functional.
Assay [5] has as its target Epidermal growth factor receptor (Homo sapiens, UniProt P00533, L858R/T790M). In words: Inhibition of EGFR L858R/T790M double mutant (unknown origin) in presence of ATP by ADP-Glo assay.
Assay [6] concerns NCI-H1975. Briefly: Antiproliferative activity against human NCI-H1975 cells assessed as cell growth inhibition incubated for 72 hrs by MTT assay. Particulars: NCI-H1975, 72 h. The class given is functional, cell-based.
Assay [7] deals with BaF3. In words: Antiproliferative activity against mouse BAF3 cells harboring EGFR L858R/T790M/C797S triple mutant. The class given is functional, cell-based.
Assay [8] has as its system BaF3. Briefly: Antiproliferative activity against mouse BAF3 cells harboring EGFR 19D/T790M/C797S triple mutant. The class given is functional, cell-based.
The subject of assay [9] is NCI-H1975. In words: Growth inhibition of human NCI-H1975 cells harbouring EGFR L858R/T790M double mutant. The class given is functional.
Assay [10] deals with T1, Epidermal growth factor receptor. Briefly: Inhibition of EGFR (unknown origin) at 100 uM relative to control.
In a further assay the test system is PC-3. Briefly: Anticancer activity against human PC-3 cells. The class given is functional, cell-based.
The next assay concerns HepG2. In words: Anticancer activity against human HepG2 cells. The class given is functional, cell-based.
Assay [11] addresses T1, Epidermal growth factor receptor. In words: Inhibition of EGFR (unknown origin) at 50 uM relative to control.
For another assay, the system named is HCT-116. In words: Anticancer activity against human HCT-116 cells. The class given is functional, cell-based.
The subject of assay [12] is Epidermal growth factor receptor (Homo sapiens), P00533 [L858R]. In words: Inhibition of EGFR L858R mutant (unknown origin) relative to control. Particulars: concentration not given here.
The subject of assay [13] is Epidermal growth factor receptor (Homo sapiens), P00533 [L858R,T790M]. Briefly: Inhibition of EGFR T790M/L858R double mutant (unknown origin) relative to control.
Assay [14] in a line: Inhibition of recombinant N-terminal GST-tagged human HER2 expressed in sf9 insect cells using poly(Glu, Tyr) sodium salt (4:1, Glu:Tyr) as a substrate measured after 40 mins by Kinase-Glo reagent based luminescence analysis.
For assay [15], the target named is T1, Epidermal growth factor receptor. Briefly: Inhibition of recombinant C-terminal His-tagged/N-terminal GST-tagged human EGFR expressed in sf9 insect cells using poly(Glu, Tyr) sodium salt (4:1, Glu:Tyr) as a substrate measured after 40 mins by Kinase-Glo reagent based luminescence analysis.
Another assay has as its system EKVX. Briefly: Anticancer activity against human EKVX assessed as cell growth inhibition at 10 uM incubated for 48 hrs relative to control. The class given is functional. Particulars: pooled result: one value given for 8 cell lines, strains, targets or settings.
Assay [16] deals with Epidermal growth factor receptor (Homo sapiens, UniProt P00533, T790M). In words: Inhibition of EGFR T790M mutant (unknown origin).
Assay [17] deals with Receptor tyrosine-protein kinase erbB-2 (Homo sapiens, UniProt P04626). Briefly: Inhibition of ErbB2 (unknown origin) pre-incubated for 5 mins followed by substrate addition and measured after 30 mins in presence of ATP by microtitre plate reader analysis.
Another assay deals with OVCAR-4. In words: Anticancer activity against human OVCAR-4 cells assessed as cell viability incubated for 24 hrs by MTT assay. Particulars: OVCAR-4, 24 h. The class given is functional, cell-based.
The test system of the next assay is ACHN. In words: Anticancer activity against human ACHN cells assessed as cell viability incubated for 24 hrs by MTT assay. The class given is functional, cell-based.
The test system of the next assay is NCI-H460. In words: Anticancer activity against human NCI-H460 cells assessed as cell viability incubated for 24 hrs by MTT assay. The class given is functional, cell-based.
Another assay deals with HCC827. In words: Antiproliferative activity against human HCC827 assessed as cell growth inhibition. The class given is functional, cell-based.
In assay [18] the test system is NCI-H1975. Briefly: Antiproliferative activity against human NCI-H1975 assessed as cell growth inhibition. The class given is functional, cell-based.
Assay [19] addresses Epidermal growth factor receptor (Homo sapiens, UniProt P00533, C797S/L858R/T790M). Briefly: Inhibition of EGFR L858R/T790M/C797S triple mutant (unknown origin).
Assay [20] deals with T2, Tyrosine-protein kinase JAK3 (Homo sapiens) (UniProt P52333).
T2 sequence (whole entry): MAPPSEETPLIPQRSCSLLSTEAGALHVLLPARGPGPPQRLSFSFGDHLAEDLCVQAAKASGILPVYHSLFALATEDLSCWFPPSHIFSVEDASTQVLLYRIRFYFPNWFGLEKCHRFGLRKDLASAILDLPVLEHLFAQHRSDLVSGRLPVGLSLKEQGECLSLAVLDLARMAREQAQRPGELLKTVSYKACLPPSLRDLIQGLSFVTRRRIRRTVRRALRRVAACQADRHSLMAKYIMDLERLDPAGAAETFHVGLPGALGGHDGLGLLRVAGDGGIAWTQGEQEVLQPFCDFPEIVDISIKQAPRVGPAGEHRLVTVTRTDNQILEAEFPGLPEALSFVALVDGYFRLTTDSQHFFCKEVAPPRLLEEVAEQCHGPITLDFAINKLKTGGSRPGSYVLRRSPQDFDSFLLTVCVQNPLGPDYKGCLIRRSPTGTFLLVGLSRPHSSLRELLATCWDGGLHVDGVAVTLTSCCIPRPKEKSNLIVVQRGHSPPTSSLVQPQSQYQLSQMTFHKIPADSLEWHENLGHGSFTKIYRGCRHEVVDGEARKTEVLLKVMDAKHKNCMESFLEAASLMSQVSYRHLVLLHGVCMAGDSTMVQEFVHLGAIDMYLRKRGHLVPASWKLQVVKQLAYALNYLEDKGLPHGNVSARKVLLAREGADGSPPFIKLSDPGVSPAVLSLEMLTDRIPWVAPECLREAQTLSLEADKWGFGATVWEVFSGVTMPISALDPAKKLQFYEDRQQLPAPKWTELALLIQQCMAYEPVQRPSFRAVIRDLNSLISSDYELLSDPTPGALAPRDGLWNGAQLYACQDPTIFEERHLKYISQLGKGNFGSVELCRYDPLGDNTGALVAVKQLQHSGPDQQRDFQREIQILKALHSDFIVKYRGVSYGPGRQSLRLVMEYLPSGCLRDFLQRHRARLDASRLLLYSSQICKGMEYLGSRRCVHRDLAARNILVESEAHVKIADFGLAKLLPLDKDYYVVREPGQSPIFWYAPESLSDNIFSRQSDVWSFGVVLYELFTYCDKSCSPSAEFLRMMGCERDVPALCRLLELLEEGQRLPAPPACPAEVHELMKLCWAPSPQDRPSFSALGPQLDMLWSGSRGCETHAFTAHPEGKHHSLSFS
In words: Inhibition of JAK3 (unknown origin).

T1 sequence (P00533 whole entry): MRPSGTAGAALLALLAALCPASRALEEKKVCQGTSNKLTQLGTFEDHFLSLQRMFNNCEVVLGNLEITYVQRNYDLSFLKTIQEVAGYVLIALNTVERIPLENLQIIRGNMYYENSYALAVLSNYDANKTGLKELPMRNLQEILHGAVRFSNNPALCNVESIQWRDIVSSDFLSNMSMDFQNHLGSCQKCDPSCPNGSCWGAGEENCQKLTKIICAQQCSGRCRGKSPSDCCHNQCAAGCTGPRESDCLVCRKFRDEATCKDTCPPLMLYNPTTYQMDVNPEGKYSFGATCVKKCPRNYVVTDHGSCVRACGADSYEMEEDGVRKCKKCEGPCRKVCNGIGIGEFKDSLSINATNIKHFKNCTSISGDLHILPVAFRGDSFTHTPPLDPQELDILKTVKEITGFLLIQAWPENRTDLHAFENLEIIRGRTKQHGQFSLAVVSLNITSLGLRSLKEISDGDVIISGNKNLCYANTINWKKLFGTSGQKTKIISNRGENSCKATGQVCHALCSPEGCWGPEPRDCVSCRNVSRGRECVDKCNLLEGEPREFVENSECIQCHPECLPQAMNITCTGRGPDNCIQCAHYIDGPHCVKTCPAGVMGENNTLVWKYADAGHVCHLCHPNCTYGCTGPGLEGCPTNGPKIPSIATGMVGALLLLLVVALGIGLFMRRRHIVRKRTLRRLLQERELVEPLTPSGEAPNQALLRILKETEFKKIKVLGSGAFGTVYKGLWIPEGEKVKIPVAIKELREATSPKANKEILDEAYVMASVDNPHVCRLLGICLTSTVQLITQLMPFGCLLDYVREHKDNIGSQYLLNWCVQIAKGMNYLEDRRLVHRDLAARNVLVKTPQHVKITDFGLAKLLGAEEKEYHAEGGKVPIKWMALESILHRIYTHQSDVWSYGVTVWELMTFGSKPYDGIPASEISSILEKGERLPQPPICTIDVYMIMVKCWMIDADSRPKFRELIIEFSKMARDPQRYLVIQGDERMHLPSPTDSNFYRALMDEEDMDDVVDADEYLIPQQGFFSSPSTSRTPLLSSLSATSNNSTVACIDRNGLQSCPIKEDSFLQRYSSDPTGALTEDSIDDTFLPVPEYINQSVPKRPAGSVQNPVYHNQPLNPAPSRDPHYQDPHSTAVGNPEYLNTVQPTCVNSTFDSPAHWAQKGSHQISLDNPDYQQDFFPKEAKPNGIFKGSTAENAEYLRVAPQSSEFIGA
Chain of Epidermal growth factor receptor (Homo sapiens, UniProt P00533, L858R/T790M) (P00533 25-1210 T790M/L858R limits assumed): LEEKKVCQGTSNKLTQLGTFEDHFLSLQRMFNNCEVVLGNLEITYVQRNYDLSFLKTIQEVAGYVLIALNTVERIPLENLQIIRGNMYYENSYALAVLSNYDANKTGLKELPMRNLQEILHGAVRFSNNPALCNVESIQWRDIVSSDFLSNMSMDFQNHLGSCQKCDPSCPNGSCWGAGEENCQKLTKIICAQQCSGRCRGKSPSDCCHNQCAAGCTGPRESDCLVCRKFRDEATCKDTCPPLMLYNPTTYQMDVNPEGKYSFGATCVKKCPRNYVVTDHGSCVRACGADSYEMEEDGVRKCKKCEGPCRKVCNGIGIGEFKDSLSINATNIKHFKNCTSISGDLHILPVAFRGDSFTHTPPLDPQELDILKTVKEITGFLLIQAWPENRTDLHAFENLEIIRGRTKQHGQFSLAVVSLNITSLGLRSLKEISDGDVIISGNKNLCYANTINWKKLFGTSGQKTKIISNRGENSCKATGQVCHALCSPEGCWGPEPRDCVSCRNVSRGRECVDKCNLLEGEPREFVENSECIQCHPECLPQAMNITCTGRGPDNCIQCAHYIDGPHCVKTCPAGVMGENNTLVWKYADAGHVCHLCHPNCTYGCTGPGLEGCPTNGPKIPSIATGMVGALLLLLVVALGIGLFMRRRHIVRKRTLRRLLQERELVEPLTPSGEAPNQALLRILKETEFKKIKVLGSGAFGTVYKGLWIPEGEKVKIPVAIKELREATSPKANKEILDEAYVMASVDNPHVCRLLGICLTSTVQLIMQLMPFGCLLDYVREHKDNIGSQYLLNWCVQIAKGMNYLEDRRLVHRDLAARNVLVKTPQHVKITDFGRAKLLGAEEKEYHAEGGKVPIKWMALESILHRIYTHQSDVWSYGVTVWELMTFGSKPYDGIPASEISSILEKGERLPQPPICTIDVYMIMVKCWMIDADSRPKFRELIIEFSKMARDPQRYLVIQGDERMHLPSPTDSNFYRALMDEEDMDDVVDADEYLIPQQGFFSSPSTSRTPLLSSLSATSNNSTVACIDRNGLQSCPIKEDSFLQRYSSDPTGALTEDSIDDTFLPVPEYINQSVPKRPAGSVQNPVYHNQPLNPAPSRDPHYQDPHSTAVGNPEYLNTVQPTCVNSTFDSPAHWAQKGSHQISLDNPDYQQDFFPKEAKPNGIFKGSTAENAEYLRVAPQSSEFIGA
Chain of Epidermal growth factor receptor (Homo sapiens), P00533 [L858R,T790M] (P00533 whole entry T790M/L858R, looked up): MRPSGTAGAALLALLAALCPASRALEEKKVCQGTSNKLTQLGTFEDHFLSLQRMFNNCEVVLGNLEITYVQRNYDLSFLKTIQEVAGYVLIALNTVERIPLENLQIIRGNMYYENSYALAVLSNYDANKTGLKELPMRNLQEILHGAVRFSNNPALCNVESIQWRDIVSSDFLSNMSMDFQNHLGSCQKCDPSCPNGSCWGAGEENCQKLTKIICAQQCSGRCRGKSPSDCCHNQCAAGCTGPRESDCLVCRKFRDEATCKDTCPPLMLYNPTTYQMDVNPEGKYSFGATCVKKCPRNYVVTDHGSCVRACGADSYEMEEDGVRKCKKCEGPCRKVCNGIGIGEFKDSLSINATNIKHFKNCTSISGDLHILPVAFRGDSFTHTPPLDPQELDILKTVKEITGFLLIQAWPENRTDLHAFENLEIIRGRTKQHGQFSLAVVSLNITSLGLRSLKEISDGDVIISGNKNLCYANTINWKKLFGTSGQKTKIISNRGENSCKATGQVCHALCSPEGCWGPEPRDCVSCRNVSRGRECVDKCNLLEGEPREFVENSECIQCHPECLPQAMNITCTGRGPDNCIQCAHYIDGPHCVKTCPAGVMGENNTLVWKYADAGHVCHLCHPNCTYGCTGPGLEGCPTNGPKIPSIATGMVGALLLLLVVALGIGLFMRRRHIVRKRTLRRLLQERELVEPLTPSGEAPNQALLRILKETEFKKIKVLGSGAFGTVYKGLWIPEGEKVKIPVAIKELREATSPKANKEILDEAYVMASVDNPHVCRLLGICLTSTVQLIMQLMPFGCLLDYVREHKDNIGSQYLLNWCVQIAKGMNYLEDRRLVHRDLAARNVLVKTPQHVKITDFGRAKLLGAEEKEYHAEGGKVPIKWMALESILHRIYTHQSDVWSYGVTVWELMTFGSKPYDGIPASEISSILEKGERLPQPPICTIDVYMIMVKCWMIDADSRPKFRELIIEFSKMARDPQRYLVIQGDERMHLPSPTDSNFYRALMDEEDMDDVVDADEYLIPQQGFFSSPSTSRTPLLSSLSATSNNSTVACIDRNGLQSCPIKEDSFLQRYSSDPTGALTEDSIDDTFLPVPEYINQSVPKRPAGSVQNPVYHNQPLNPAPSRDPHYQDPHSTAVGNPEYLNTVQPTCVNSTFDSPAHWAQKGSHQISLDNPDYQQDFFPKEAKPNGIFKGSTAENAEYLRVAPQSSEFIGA
Chain of Epidermal growth factor receptor (Homo sapiens, UniProt P00533, T790M) (P00533 25-1210 T790M limits assumed): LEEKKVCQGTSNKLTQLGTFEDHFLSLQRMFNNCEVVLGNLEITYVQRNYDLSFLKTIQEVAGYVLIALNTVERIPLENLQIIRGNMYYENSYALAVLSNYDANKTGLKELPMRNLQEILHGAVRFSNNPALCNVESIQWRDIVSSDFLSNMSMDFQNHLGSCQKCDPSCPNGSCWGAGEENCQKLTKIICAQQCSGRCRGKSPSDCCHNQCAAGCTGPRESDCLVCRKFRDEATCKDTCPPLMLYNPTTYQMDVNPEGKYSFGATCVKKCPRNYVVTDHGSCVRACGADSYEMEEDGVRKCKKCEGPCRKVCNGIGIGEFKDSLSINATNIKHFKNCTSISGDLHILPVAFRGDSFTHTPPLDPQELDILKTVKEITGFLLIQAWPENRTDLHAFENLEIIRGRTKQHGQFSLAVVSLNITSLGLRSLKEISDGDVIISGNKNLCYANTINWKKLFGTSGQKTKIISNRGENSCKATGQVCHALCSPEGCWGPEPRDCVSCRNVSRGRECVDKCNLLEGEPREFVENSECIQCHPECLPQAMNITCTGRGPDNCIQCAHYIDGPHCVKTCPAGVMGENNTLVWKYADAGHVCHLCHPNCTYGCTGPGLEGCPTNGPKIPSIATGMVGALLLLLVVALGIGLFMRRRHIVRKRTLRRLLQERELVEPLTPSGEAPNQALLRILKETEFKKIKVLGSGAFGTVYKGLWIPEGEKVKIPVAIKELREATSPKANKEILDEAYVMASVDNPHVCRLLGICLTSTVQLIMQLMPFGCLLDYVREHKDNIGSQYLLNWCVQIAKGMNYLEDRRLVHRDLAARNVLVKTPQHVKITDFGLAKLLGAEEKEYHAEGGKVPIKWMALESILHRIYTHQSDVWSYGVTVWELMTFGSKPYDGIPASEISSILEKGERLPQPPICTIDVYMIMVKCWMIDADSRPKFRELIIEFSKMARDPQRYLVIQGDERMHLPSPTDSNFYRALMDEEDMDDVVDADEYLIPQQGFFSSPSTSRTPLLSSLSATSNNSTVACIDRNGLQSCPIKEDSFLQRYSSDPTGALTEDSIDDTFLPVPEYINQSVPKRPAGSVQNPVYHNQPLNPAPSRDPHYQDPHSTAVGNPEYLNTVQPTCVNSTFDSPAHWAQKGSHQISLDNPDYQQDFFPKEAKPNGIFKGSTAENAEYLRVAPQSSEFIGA

With `C=CC(=O)Nc1cccc(Oc2nc(Nc3ccc(OC)cc3)nc3c2CSCC3)c1`, the IC50 in assay [1] was determined as 28 nM; in the assay with MCF7 [2] it was 660 nM. Moreover, the results for the “Ratio IC50” value in the assay on MCF7 [3] and with MCF7 [4] were 4.64 and 1.73, respectively.
Take `C=CC(=O)Nc1cccc(Nc2nc(Nc3ccc(SCCCN4CCOCC4)cc3)ncc2Cl)c1`: the IC50 was found to be 27.5 nM in assay [5] and 74 nM with NCI-H1975 [6].
On to `CCC(=O)NC1CCC(N2C(=O)N(c3ccccc3Cl)Cc3cnc(Nc4ccc(N5CCN(C)CC5)c(C)c4)nc32)CC1` (centres undefined), for which the IC50 turned out to be 290 nM with BaF3 [7] and 310 nM in the assay on BaF3 [8].
In the case of `C=CC(=O)N1CCCC(n2nc(-c3cccc4ccccc34)c3c(N)ncnc32)C1` (centres undefined), the GI50 in the assay on NCI-H1975 [9] was determined as 490 nM. That is a sub-micromolar value.
Consider `Cc1ccc(-c2cc(-c3ccc(Cl)cc3)nc3nc(-n4[nH]c(C)cc4=O)[nH]c(=O)c23)cc1`, for which the figures for the inhibition in assay [10] and in assay [11] were 86% and 81%, respectively. Further, the IC50 came to 6600 nM in the assay with PC-3, 300 nM with HepG2 and 7000 nM in the assay on HCT-116.
As to `CCOC(=O)c1cnc(NC(N)=S)[nH]c1=O`, the inhibition in assay [12] and in [13] was 62% each time.
Take `Fc1cccc(COc2ccc(Nc3ncnc4sc5c(c34)CCCC5)cc2Cl)c1`: the IC50 came to 500 nM in assay [14] and 200 nM in assay [15]. Further, the inhibition at 10 µM with EKVX worked out at 42%.
`CC#CC(=O)Nc1ccc(Nc2nccc(-c3cn(C)c4ccccc34)n2)cc1` displayed an IC50 in [16] of 220 nM.
For `CCOC(=O)c1cnc(NC(N)=S)nc1C`, the inhibition in assay [12] and in assay [13] was 62% throughout.
Consider `Cc1nn(-c2ccc(F)cc2)c2c(Nc3ccc(F)c(Cl)c3)ncnc12`, for which the IC50 in assay [17] was 250 nM; with OVCAR-4, 1740 nM; in the assay on ACHN, 5530 nM; in the assay on NCI-H460, 1740 nM and 4440 nM.
On to `C=CC(=O)Nc1cccc(Nc2nc(Nc3ccc(SCC(=O)N4CCOCC4)cc3)ncc2Cl)c1`, for which the IC50 in [5] was 9.1 nM.
Consider `CN(C)C1CCN(c2ccc(Nc3cc4c(N5CCC(CO)CC5)nc(Nc5ccc(F)cc5)nc4cn3)nc2)CC1`, for which the IC50 with HCC827 and with NCI-H1975 [18] was 40 nM throughout.
In [16], `C=CC(=O)Nc1ccc(Nc2nccc(-c3cn(C)c4ccccc34)n2)cc1` came in with an IC50 of 180 nM.
In the case of `C=CC(=O)N1CCCC(n2nc(-c3cn(C)c4ccccc34)c3c(N)ncnc32)C1` (centres undefined), the GI50 in the assay with NCI-H1975 [9] is 210 nM. In other words, the sub-micromolar range.
With `C=CC(=O)N1CCCC(n2nc(-c3ccc4ccccc4c3)c3c(N)ncnc32)C1` (centres undefined), growth in the assay on NCI-H1975 [9] was halved (GI50) at 140 nM. Besides, the IC50 in [19] came to 88 nM.
`CC#CC1=Nc2cc(Nc3nccc(-c4cn(C)c5ccccc45)n3)ccc2C(C)(C)O1` yielded an IC50 in assay [20] of 60 nM.
